{"source": "patent US20110182992A1", "about": "“PEPTIDES AND PEPTIDE MIMETICS TO TREAT PATHOLOGIES ASSOCIATED WITH EYE DISEASE” (priority 2008, published 2011)", "key": {"[1]": {"tested_on": "mice fed an atherogenic diet", "details": "20 μg daily injected; cited from earlier work"}, "ApoE null mice [2]": {"tested_on": "ApoE null mice", "test": "HDL function after D-4F and/or statin in the drinking water", "assay_type": "in vivo, mouse", "details": "0.05 mg/ml in the drinking water for 24 hours"}, "[3]": {"tested_on": "human aortic endothelial cells", "test": "Prevention of LDL-induced monocyte chemotactic activity, co-incubation", "assay_type": "cell-based", "details": "co-incubation with control human LDL 200 μg protein/ml, overnight"}, "PON1": {"tested_on": "PON1", "details": "added to the drinking water, 24 hrs", "protocol": "The values are the mean±SD of readings from quadruple plasma aliquots.\nAfter 24 hrs blood was collected and plasma was assayed for PON1 activity."}, "ApoE null mice [4]": {"tested_on": "ApoE null mice", "test": "Protection against PAPC oxidation by HPODE and induction of monocyte chemotactic activity by HDL from apo E null mice given oral peptides", "assay_type": "in vivo, mouse", "details": "added to the drinking water, 24 hrs; murine HDL 100 μg cholesterol/ml", "procedure": "(§1) The values are the mean±SD of the number of migrated monocytes in 9 high power fields from each of quadruple assay wells. Asterisks indicate significant difference (p<0.05) as compared to No Peptide mHDL.\nAfter 24 hrs blood was collected, plasma fractionated by FPLC and fractions containing HDL (designated as mHDL) were pooled and HDL protective capacity against PAPC oxidation as determined by the induction of monocyte chemotactic activity was determined. For the assay controls the culture wells received no lipoproteins (no additions), the phospholipid PAPC at 20µg/ml+HPODE, at 1.0 μg/ml, or PAPC+HPODE plus standard normal human HDL (at 350 μg HDL cholesterol/ml and designated as +Cont. h HDL).\nFor testing the murine HDL, PAPC+HPODE together with murine HDL (+F mHDL or +J mHDL) were added to artery wall cell cultures. […] The murine HDL was used at 100 μg cholesterol/ml."}, "LDL receptor null mice": {"tested_on": "LDL receptor null mice", "test": "HDL protective capacity in LDL receptor null mice given peptide in drinking water", "assay_type": "in vivo", "details": "0.25 or 0.5 mg per ml of drinking water, 24 or 48 hrs, mouse HDL at 100 μg/ml", "procedure": "FIG. 3 illustrates the effect of apo J peptide mimetics on HDL protective capacity in LDL receptor null mice. The values are the mean±SD of the number of migrated monocytes in 9 high power fields from each of quadruple assay wells.\nD-4F designated as F, or the apoJ peptide made from D amino acids (D-J336, designated as J) was added to the drinking water of LDL receptor null mice (4 per group) at 0.25 or 0.5 mg per ml of drinking water. After 24- or 48-hrs blood was collected from the mice and their HDL was isolated and tested for its ability to protect against LDL-induced monocyte chemotactic activity. Assay controls included culture wells that received no lipoproteins (no addition), or control human LDL alone (designated as LDL, 200µg cholesterol/ml), or control LDL+ control human HDL (designated as +HDL, 350µg HDL cholesterol). For testing the mouse HDL, the control LDL was added together with mouse HDL (+F HDL or +J HDL) to artery wall cell cultures. The mouse HDL was added at 100 μg cholesterol/ml respectively."}, "ApoE null mice [5]": {"tested_on": "ApoE null mice", "test": "Protection against LDL-induced monocyte chemotactic activity by HDL from apo E null mice given oral peptides", "assay_type": "in vivo, mouse", "description": "as §1, with “FIG. 4 illustrates protection against LDL-induced monocyte chemotactic activity by HDL from apo E null mice given oral peptides. The” for “The”\nAfter 24 hrs blood was collected, plasma fractionated by FPLC and fractions containing LDL (designated as mLDL for murine LDL) and fractions containing HDL (designated as mHDL) were separately pooled and HDL protective capacity against LDL oxidation as determined by LDL-induced monocyte chemotactic activity was determined. For the assay controls the culture wells received no lipoproteins (no additions), mLDL alone (at 200 μg cholesterol/ml), or mLDL+ standard normal human HDL (designated as Cont. h HDL, at 350 μg HDL cholesterol/ml).\nFor testing the murine HDL, mLDL together with murine HDL (+F mHDL or +J mHDL) were added to artery wall cell cultures. […] The murine HDL was used at 100µg cholesterol/ml."}, "ApoE null mice [6]": {"tested_on": "ApoE null mice", "test": "Ability of LDL from apoE null mice given oral peptides to induce monocyte chemotactic activity (LDL susceptibility to oxidation)", "assay_type": "in vivo, mouse", "details": "added to the drinking water, 24 hrs", "description": "as §1, with “FIG. 5 illustrates the effect of oral apo A-1 peptide mimetic and apoJ peptide on LDL susceptibility to oxidation. The” for “The”, “LDL.” for “mHDL.”\nFIG. 5 illustrates the effect of oral apo A-1 peptide mimetic and apoJ peptide on LDL susceptibility to oxidation. […] After 24 hrs blood was collected from the mice shown in FIG. 4, plasma fractionated by FPLC and fractions containing LDL (designated as mLDL for murine LDL) were pooled and LDL susceptibility to oxidation as determined by induction of monocyte chemotactic activity was determined. For the assay controls the culture wells received no lipoproteins (no additions), mLDL alone (at 200 μg cholesterol/ml), or mLDL+ standard normal human HDL (designated as Cont. h HDL, 350 μg HDL cholesterol).\nMurine LDL, mLDL, from mice that received the D-4F (F mLDL) or those that received the apoJ peptide (J mLDL) were added to artery wall cell cultures."}, "[7]": {"tested_on": "human aortic endothelial cells", "test": "Prevention of LDL-induced monocyte chemotactic activity by pre-treatment of artery wall cells", "assay_type": "cell-based", "details": "6 hrs pre-incubation with peptide, wash, then control human LDL 200 μg protein/ml overnight", "procedure": "FIG. 2 illustrates the prevention of LDL-induced monocyte chemotactic activity by pre-treatment of artery wall cells with D-J336 as compared to D-4F. The data are mean±SD of the number of migrated monocytes in nine high power fields in quadruple cultures.\nFIG. 2 illustrates a comparison of the effect of D-4F with the effect of D-J336 on the prevention of LDL induced monocyte chemotactic activity in a pre-incubation. Human aortic endothelial cells were pre-incubated with D-J336 or D-4F at 4, 2, and 1µg/ml for DJ336 or 100, 50, 25, and 12.5 μg/ml for D-4F for 6 hrs. The cultures were then washed and were incubated with medium alone (no addition), or with control human LDL (200 μg protein/ml), or with control human LDL+ control human HDL (350 μg HDL protein/ml) as assay controls. The wells that were pre-treated with peptides received the control human LDL at 200 μg protein/ml. Following overnight incubation, the supernatants were assayed for monocyte chemotactic activity."}, "mice": {"tested_on": "mice", "test": "LDL isolated after injection of apo A-I into mice: oxidation by human artery wall cells", "assay_type": "in vivo, mouse", "description": "(§2) We discovered that normal HDL inhibits three steps in the formation of mildly oxidized LDL. […] These seeding molecules were required for cocultures of human artery wall cells to be able to oxidize LDL and for the LDL to induce the artery wall cells to produce monocyte chemotactic activity."}, "human volunteers": {"tested_on": "human volunteers", "test": "LDL isolated after infusion of apo A-I into humans: oxidation by human artery wall cells", "assay_type": "in vivo", "description": "as §2"}, "human LDL": {"tested_on": "human LDL", "test": "Treating human LDL in vitro: removal of seeding molecules", "description": "as §2"}, "C57Bl/6J-apoE null mice": {"tested_on": "C57Bl/6J-apoE null mice", "test": "Intravitreal L-4F: electron microscopy of Bruch's membrane of aged C57Bl/6J-apoE null mice", "assay_type": "in vivo, mouse", "description": "In every other RPE cell big lipid vacuoles (asterisks) are found, a sign of stress and beginning degeneration. PR: photo receptors; CC: choriocapillaris: EC: vascular endothelial cell of the choriocapillaris.\nThe membrane is slightly thickened with multiple translucent lipid vacuoles. A few are marked with asterisks. EC: vascular endothelial cell of choriocapillaris.\nAn effective clearance of this lipid debris via an ApoA-I mimetic peptide (L-4F) could prevent early AMD-like degeneration.\nL-4F was injected directly into the vitreous cavity of right eyes of 10 eight month old C57Bl/6J-apoE null mice. A single dose of 3 μl was injected with a L-4F concentration of 400 μg/ml. All left eyes were untreated throughout the study and thus be served as controls. The animals were then sacrificed 21 days after the injection and the eyes were immediately enucleated and fixed. Eyes then were processed for electron microscopy (EM)."}, "[8]": {"test": "Association with pre-beta HDL / HDL and clearance from the circulation after an oral dose", "details": "mouse, in vivo"}}}
{"compound": "Ac-D-W-L-K-A-F-Y-D-K-V-F-E-K-F-K-E-F-F-NH2 (Ac-DWLKAFYDKVFEKFKEFF-NH2) [Peptide 5F]", "values": [{"measurement": "LDL from PBS-injected mice compared with LDL from peptide-injected mice: oxidation and induction of monocyte chemotactic activity", "setting": "[1]", "result": "more readily oxidized and more readily induced monocyte chemotactic activity than LDL taken from mice fed the same diet but injected with 20µg daily of peptide 5F"}]}
{"compound": "CC(C)c1c(C(=O)Nc2ccccc2)c(-c2ccccc2)c(-c2ccc(F)cc2)n1CC[C@@H](O)C[C@@H](O)CC(=O)O", "note": "[atorvastatin, reference compound]", "values": [{"measurement": "HDL function, statin alone", "setting": "ApoE null mice [2]", "result": "did not improve HDL function"}]}
{"compound": "Ac-LLEQLNEQFNWVSRLANLTQGE-NH2 [D-J336]", "values": [{"measurement": "in vitro concentration that prevents LDL-induced monocyte chemotactic activity by human artery wall cells, relative to the concentration required for the D-4F peptide", "setting": "[3]", "result": "10 to 25", "unit": "times less"}, {"measurement": "potency in increasing the paraoxonase activity of apo E null mice", "setting": "PON1", "result": "at least as potent as D-4F"}, {"measurement": "potency in causing HDL to inhibit oxidation of PAPC by HPODE in a human artery wall co-culture (monocyte chemotactic activity)", "setting": "ApoE null mice [4]", "result": "as potent as D-4F"}, {"measurement": "activity of mouse HDL in preventing control LDL from inducing artery wall cells to produce monocyte chemotactic activity", "setting": "LDL receptor null mice", "result": "as active as 350 μg/ml of control human HDL"}, {"measurement": "activity of murine HDL against LDL-induced monocyte chemotactic activity", "setting": "ApoE null mice [5]; ApoE null mice, peptide in drinking water 24 hrs, murine HDL at 100 μg/ml", "result": "as active as 350µg/ml of normal human HDL"}, {"measurement": "potency in enhancing HDL protective capacity in apo E null mice", "setting": "ApoE null mice [5]; added to the drinking water, 24 hrs", "result": "as potent as D-4F"}, {"measurement": "potency in rendering LDL from apo E null mice resistant to oxidation by human artery wall cells (induction of monocyte chemotactic activity)", "setting": "ApoE null mice [6]", "result": "slightly more potent than D-4F"}, {"measurement": "potency in preventing LDL oxidation by artery wall cells in vitro, compared with D-4F", "setting": "[7]", "result": "10-25 times more potent"}]}
{"compound": "apo A-I: apolipoprotein A-I, the major protein of HDL", "values": [{"measurement": "oxidation of LDL isolated after injection, by human artery wall cells, and induction of monocyte chemotactic activity", "setting": "mice", "result": "resistant to oxidation by human artery wall cells and did not induce monocyte chemotactic activity"}, {"measurement": "oxidation of LDL isolated after infusion, by human artery wall cells, and induction of monocyte chemotactic activity", "setting": "human volunteers", "result": "resistant to oxidation by human artery wall cells and did not induce monocyte chemotactic activity"}, {"measurement": "removal of seeding molecules from human LDL in vitro", "setting": "human LDL", "result": "removed seeding molecules from the LDL that included HPODE and HPETE"}]}
{"compound": "Ac-D-W-F-K-A-F-Y-D-K-V-A-E-K-F-K-E-A-F-NH2 (Ac-DWFKAFYDKVAEKFKEAF-NH2) [Peptide L-4F]", "values": [{"measurement": "Bruch's membrane structure, electron microscopy of treated eyes", "setting": "C57Bl/6J-apoE null mice; magnification 5,000×", "result": "regular and uniform Bruch's membrane structure"}, {"measurement": "lipid droplets in RPE cells, electron microscopy of treated eyes", "setting": "C57Bl/6J-apoE null mice; magnification 5,000×", "result": "none of the RPE cells showed lipid droplets"}, {"measurement": "translucent lipid vacuoles in Bruch's membrane, electron microscopy of a treated eye", "setting": "C57Bl/6J-apoE null mice; magnification 20,000×", "result": "no translucent lipid vacuoles shown"}, {"measurement": "Bruch's membrane and RPE morphology and lipid content of treated eyes compared to untreated eyes (EM)", "setting": "C57Bl/6J-apoE null mice; single intravitreal 3 μl of 400 μg/ml, 21 days, EM of 2 mice", "result": "significant improvement in Bruch's membrane and RPE morphology as well as lipid content"}]}
{"compound": "Ac-LVGRQLEEFL-NH2 [D-[113-122]apoJ]", "values": [{"measurement": "association with pre-beta HDL and HDL", "setting": "[8]", "result": "slowly associates with pre-beta HDL and to a lesser extent with HDL"}, {"measurement": "time it remains associated with the HDL fractions (pre-beta HDL, HDL)", "setting": "[8]", "result": "at least 36 hours"}]}
